Experimental data published in publication PMC8330742, “New benzothieno[2,3-c]pyridines as non-steroidal CYP17 inhibitors: design, synthesis, anticancer screening, apoptosis induction, and in silico ADME profile studies” (Journal of Enzyme Inhibition and Medicinal Chemistry, 2021).

Key:
SR = experiment: NCI-60 SRB screen; format: cell-based; conditions: Homo sapiens, single dose 10^−5 M, read-out: Growth inhibition (%)
786-0 = experiment: NCI-60 SRB screen; format: cell-based; conditions: Homo sapiens; 786-0; single dose 10^−5 M; read-out: Growth inhibition (%)
NCI/ADR-RES = experiment: NCI-60 SRB screen; format: cell-based, human; conditions: Homo sapiens, single dose 10^−5 M, read-out: Growth inhibition (%)
OVCAR-8 = experiment: NCI-60 SRB screen; format: cell-based, human; conditions: Homo sapiens; OVCAR-8; single dose 10^−5 M; read-out: Growth inhibition (%)
OVCAR-4 = experiment: NCI-60 SRB screen; format: cell-based, human; conditions: Homo sapiens; OVCAR-4; single dose 10^−5 M; read-out: Growth inhibition (%)
UACC-62 = experiment: NCI-60 SRB screen; format: cell-based, human; conditions: Homo sapiens; UACC-62; single dose 10^−5 M; read-out: Growth inhibition (%)
COLO 205 = experiment: NCI-60 SRB screen; format: cell-based, human; conditions: Homo sapiens; COLO 205; single dose 10^−5 M; read-out: Growth inhibition (%)
HCC-2998 = experiment: NCI-60 SRB screen; format: cell-based, human; conditions: Homo sapiens; HCC-2998; single dose 10^−5 M; read-out: Growth inhibition (%)
UO-31 = experiment: NCI-60 SRB screen; format: cell-based, human; conditions: Homo sapiens; UO-31; single dose 10^−5 M; read-out: Growth inhibition (%)
SW-620 = experiment: NCI-60 SRB screen; format: cell-based; conditions: Homo sapiens; SW-620; single dose 10^−5 M; read-out: Growth inhibition (%)
UACC-257 = experiment: NCI-60 SRB screen; format: cell-based, human; conditions: Homo sapiens, UACC-257; UACC-275 (so in the source); single dose 10^−5 M; read-out: Growth inhibition (%)
HOP-62 = experiment: NCI-60 SRB screen; format: cell-based, human; conditions: Homo sapiens; HOP-62; single dose 10^−5 M; read-out: Growth inhibition (%)
NCI-H322M = experiment: NCI-60 SRB screen; format: cell-based, human; conditions: Homo sapiens, single dose 10^−5 M, read-out: Growth inhibition (%)
MDA-MB-435 = experiment: NCI-60 SRB screen; format: cell-based; conditions: Homo sapiens, MDA-MB-435, read-out: Growth inhibition (%)
NCI-H226 = experiment: NCI-60 SRB screen; format: cell-based, human; conditions: Homo sapiens; NCI-H226; single dose 10^−5 M; read-out: Growth inhibition (%)
RXF 393 = experiment: NCI-60 SRB screen; format: cell-based, human; conditions: Homo sapiens; RXF 393; single dose 10^−5 M; read-out: Growth inhibition (%)
ACHN = experiment: NCI-60 SRB screen; format: cell-based; conditions: Homo sapiens, single dose 10^−5 M, read-out: Growth inhibition (%)
CCRF-CEM = experiment: NCI-60 SRB screen; format: cell-based; conditions: Homo sapiens, single dose 10^−5 M, read-out: Growth inhibition (%)
SK-MEL-5 = experiment: NCI-60 SRB screen; format: cell-based, human; conditions: Homo sapiens; SK-MEL-5; single dose 10^−5 M; read-out: Growth inhibition (%)
NCI-H460 = experiment: NCI-60 SRB screen; format: cell-based, human; conditions: Homo sapiens; NCI-H460; single dose 10^−5 M; read-out: Growth inhibition (%)
LOX IMVI = experiment: NCI-60 SRB screen; format: cell-based, human; conditions: Homo sapiens, single dose 10^−5 M, read-out: Growth inhibition (%)
HL-60(TB) = experiment: NCI-60 SRB screen; format: cell-based, human; conditions: Homo sapiens; HL-60 (TB); single dose 10^−5 M; read-out: Growth inhibition (%)
HCT-15 = experiment: NCI-60 SRB screen; format: cell-based, human; conditions: Homo sapiens; HCT-15; single dose 10^−5 M; read-out: Growth inhibition (%)
K-562 = experiment: NCI-60 SRB screen; format: cell-based, human; conditions: Homo sapiens, K562; K-562; single dose 10^−5 M; read-out: Growth inhibition (%)
HOP-92 = experiment: NCI-60 SRB screen; format: cell-based, human; conditions: Homo sapiens; HOP-92; single dose 10^−5 M; read-out: Growth inhibition (%)
[1] = test system: panel of 60 cancer cell lines; experiment: NCI-60 SRB screen, mean or range over the panel; format: cell-based, human; conditions: Homo sapiens; mean over the cell lines; single dose 10^−5 M; read-out: Mean growth inhibition (%)
SF-295 = experiment: NCI-60 SRB screen; format: cell-based, human; conditions: Homo sapiens; SF-295; single dose 10^−5 M; read-out: Growth inhibition (%)
HCT-116 = experiment: NCI-60 SRB screen; format: cell-based, human; conditions: Homo sapiens; HCT-116; single dose 10^−5 M; read-out: Growth inhibition (%)
KM12 = experiment: NCI-60 SRB screen; format: cell-based, human; conditions: Homo sapiens; KM12; single dose 10^−5 M; read-out: Growth inhibition (%)
OVCAR-3 = experiment: NCI-60 SRB screen; format: cell-based, human; conditions: Homo sapiens; OVCAR-3; single dose 10^−5 M; read-out: Growth inhibition (%)
NCI-H522 = experiment: NCI-60 SRB screen; format: cell-based, human; conditions: Homo sapiens; NCI-H522; single dose 10^−5 M; read-out: Growth inhibition (%)
M14 = experiment: NCI-60 SRB screen; format: cell-based, human; conditions: Homo sapiens; M14; single dose 10^−5 M; read-out: Growth inhibition (%)
NCI-H23 = experiment: NCI-60 SRB screen; format: cell-based, human; conditions: Homo sapiens; NCI-H23; single dose 10^−5 M; read-out: Growth inhibition (%)
IGROV1 = experiment: NCI-60 SRB screen; format: cell-based, human; conditions: Homo sapiens, IGROV-1; IGROV1; single dose 10^−5 M; read-out: Growth inhibition (%)
CAKI-1 = experiment: NCI-60 SRB screen; format: cell-based, human; conditions: Homo sapiens; CAKI-1; single dose 10^−5 M; read-out: Growth inhibition (%)
TK-10 = experiment: NCI-60 SRB screen; format: cell-based, human; conditions: Homo sapiens; TK-10; single dose 10^−5 M; read-out: Growth inhibition (%)
A549/ATCC = experiment: NCI-60 SRB screen; format: cell-based, human; conditions: Homo sapiens, single dose 10^−5 M, read-out: Growth inhibition (%)
MOLT-4 = experiment: NCI-60 SRB screen; format: cell-based; conditions: Homo sapiens; MOLT-4; single dose 10^−5 M; read-out: Growth inhibition (%)
SN12C = experiment: NCI-60 SRB screen; format: cell-based, human; conditions: Homo sapiens, SN12C; SN 12 C; single dose 10^−5 M; read-out: Growth inhibition (%)
SK-OV-3 = experiment: NCI-60 SRB screen; format: cell-based, human; conditions: Homo sapiens; SK-OV-3; single dose 10^−5 M; read-out: Growth inhibition (%)
EKVX = experiment: NCI-60 SRB screen; format: cell-based, human; conditions: Homo sapiens, single dose 10^−5 M, read-out: Growth inhibition (%)
SF-268 = experiment: NCI-60 SRB screen; format: cell-based, human; conditions: Homo sapiens; SF-268; single dose 10^−5 M; read-out: Growth inhibition (%)
SK-MEL-2 = experiment: NCI-60 SRB screen; format: cell-based, human; conditions: Homo sapiens; SK-MEL-2; single dose 10^−5 M; read-out: Growth inhibition (%)
SK-MEL-28 = experiment: NCI-60 SRB screen; format: cell-based; conditions: Homo sapiens; SK-MEL-28; single dose 10^−5 M; read-out: Growth inhibition (%)

SMILES: COc1ccc(C2NC(=O)C(Cl)c3c2sc2c(F)cccc32)cc1 (centres unmarked) [Compound 4b, 4-Chloro-8-fluoro-1-(4-methoxyphenyl)-1,2-dihydro[1]benzothieno[2,3-c] pyridine-3(4H)-one]
- inhibition at 10 µM (SR): 39.3%
- inhibition at 10 µM (786-0): -0.46%
- inhibition at 10 µM (NCI/ADR-RES): 9.18%
- inhibition at 10 µM (OVCAR-8): 2.95%
- inhibition at 10 µM (OVCAR-4): 7.51%
- inhibition at 10 µM (UACC-62): 8.74%
- inhibition at 10 µM (COLO 205): -20.5%
- inhibition at 10 µM (HCC-2998): -6.39%
- inhibition at 10 µM (UO-31): 71.7%
- inhibition at 10 µM (SW-620): 6.49%
- inhibition at 10 µM (UACC-257): -6.58%
- inhibition at 10 µM (HOP-62): 17.2%
- inhibition at 10 µM (NCI-H322M): 22%
- inhibition at 10 µM (MDA-MB-435): 33.7%
- inhibition at 10 µM (NCI-H226): 7.14%
- inhibition at 10 µM (RXF 393): 9.68%
- inhibition at 10 µM (ACHN): -3.2%
- inhibition at 10 µM (CCRF-CEM): -0.42%
- inhibition at 10 µM (SK-MEL-5): -0.07%
- inhibition at 10 µM (NCI-H460): 31.4%
- inhibition at 10 µM (LOX IMVI): 6.46%
- inhibition at 10 µM (HL-60(TB)): -5.26%
- inhibition at 10 µM (HCT-15): 14.2%
- inhibition at 10 µM (K-562): 31.3%
- inhibition at 10 µM (HOP-92): 16.4%
- inhibition at 10 µM [1]: 8.66%
- inhibition at 10 µM (SF-295): 1.82%
- inhibition at 10 µM (HCT-116): 1.62%
- inhibition at 10 µM (KM12): 7.6%
- inhibition at 10 µM (OVCAR-3): 0.61%
- inhibition at 10 µM (NCI-H522): 21.7%
- inhibition at 10 µM (M14): 3.86%
- inhibition at 10 µM (NCI-H23): 6.41%
- inhibition at 10 µM (IGROV1): 4.86%
- inhibition at 10 µM (CAKI-1): 17.7%
- inhibition at 10 µM (TK-10): -38.1%
- inhibition at 10 µM (A549/ATCC): 55.5%
- inhibition at 10 µM (MOLT-4): 7.88%
- inhibition at 10 µM (SN12C): 3.66%
- inhibition at 10 µM (SK-OV-3): -2.04%
- inhibition at 10 µM (EKVX): 23%
- inhibition at 10 µM (SF-268): 14.3%
- inhibition at 10 µM (SK-MEL-2): -18.3%
- inhibition at 10 µM (SK-MEL-28): -0.07%
